Measurements: ChEMBL document CHEMBL3877299, “Imidazopyridine-fused [1,3]-diazepinones part 2: Structure-activity relationships and antiproliferative activity against melanoma cells” (Eur J Med Chem, 2017)
pIC50: −log10 of the molar value.

Columns and labels:
[1] = Growth inhibition of human MALME-3M cells assessed as cell growth at 10 uM incubated for 48 hrs by sulforhodamine B assay relative to control; format: functional; conditions: read-out: Activity
[2] = Growth inhibition of human OVCAR5 cells assessed as cell growth at 10 uM incubated for 48 hrs by sulforhodamine B assay relative to control; format: functional; conditions: OVCAR-5, 48 h, read-out: Activity
[3] = Growth inhibition of human RXF393 cells assessed as cell growth at 10 uM incubated for 48 hrs by sulforhodamine B assay relative to control; format: functional; conditions: RXF 393, 48 h, read-out: Activity
[4] = Growth inhibition of human KM12 cells assessed as cell growth at 10 uM incubated for 48 hrs by sulforhodamine B assay relative to control; format: functional; conditions: KM12, 48 h, read-out: Activity
[5] = Growth inhibition of human U251 cells assessed as cell growth at 10 uM incubated for 48 hrs by sulforhodamine B assay relative to control; format: functional; conditions: U-251, 48 h, read-out: Activity
[6] = Growth inhibition of human NCI-H322M cells assessed as cell growth at 10 uM incubated for 48 hrs by sulforhodamine B assay relative to control; format: functional; conditions: read-out: Activity
[7] = Growth inhibition of human SNB19 cells assessed as cell growth at 10 uM incubated for 48 hrs by sulforhodamine B assay relative to control; format: functional; conditions: SNB-19, 48 h, read-out: Activity
[8] = Growth inhibition of human M14 cells assessed as cell growth at 10 uM incubated for 48 hrs by sulforhodamine B assay relative to control; format: functional; conditions: M14, 48 h, read-out: Activity
[9] = Growth inhibition of human HT-29 cells assessed as cell growth at 10 uM incubated for 48 hrs by sulforhodamine B assay relative to control; format: functional; conditions: HT-29, 48 h, read-out: Activity
[10] = Growth inhibition of human NCI-H23 cells assessed as cell growth at 10 uM incubated for 48 hrs by sulforhodamine B assay relative to control; format: functional; conditions: NCI-H23, 48 h, read-out: Activity
[11] = Growth inhibition of human Caki1 cells assessed as cell growth at 10 uM incubated for 48 hrs by sulforhodamine B assay relative to control; format: functional; conditions: CAKI-1, 48 h, read-out: Activity
[12] = Growth inhibition of human TK10 cells assessed as cell growth at 10 uM incubated for 48 hrs by sulforhodamine B assay relative to control; format: functional; conditions: TK-10, 48 h, read-out: Activity
[13] = Growth inhibition of human SK-MEL-2 cells assessed as cell growth at 10 uM incubated for 48 hrs by sulforhodamine B assay relative to control; format: functional; conditions: SK-MEL-2, 48 h, read-out: Activity
[14] = Growth inhibition of human SW620 cells assessed as cell growth at 10 uM incubated for 48 hrs by sulforhodamine B assay relative to control; format: functional; conditions: SW-620, 48 h, read-out: Activity
[15] = Growth inhibition of human MCF7 cells assessed as cell growth at 10 uM incubated for 48 hrs by sulforhodamine B assay relative to control; format: functional; conditions: MCF7, 48 h, read-out: Activity
[16] = Growth inhibition of human MDA-MB-468 cells assessed as cell growth at 10 uM incubated for 48 hrs by sulforhodamine B assay relative to control; format: functional; conditions: MDA-MB-468, 48 h, read-out: Activity
[17] = Growth inhibition of human T47D cells assessed as cell growth at 10 uM incubated for 48 hrs by sulforhodamine B assay relative to control; format: functional; conditions: read-out: Activity
[18] = Cytotoxicity against human MDA-MB-435 cells assessed as growth inhibition after 48 hrs by MTT assay; format: functional; conditions: MDA-MB-435, 48 h
[19] = Growth inhibition of human SK-MEL-5 cells assessed as cell growth at 10 uM incubated for 48 hrs by sulforhodamine B assay relative to control; format: functional; conditions: SK-MEL-5, 48 h, read-out: Activity
[20] = Growth inhibition of human MOLT4 cells assessed as cell growth at 10 uM incubated for 48 hrs by sulforhodamine B assay relative to control; format: functional; conditions: MOLT-4, 48 h, read-out: Activity
[21] = Growth inhibition of human ACHN cells assessed as cell growth at 10 uM incubated for 48 hrs by sulforhodamine B assay relative to control; format: functional; conditions: read-out: Activity
[22] = Growth inhibition of human PC3 cells assessed as cell growth at 10 uM incubated for 48 hrs by sulforhodamine B assay relative to control; format: functional; conditions: PC-3, 48 h, read-out: Activity
[23] = Growth inhibition of human UACC257 cells assessed as cell growth at 10 uM incubated for 48 hrs by sulforhodamine B assay relative to control; format: functional; conditions: UACC-257, 48 h, read-out: Activity
[24] = Growth inhibition of human HCC2998 cells assessed as cell growth at 10 uM incubated for 48 hrs by sulforhodamine B assay relative to control; format: functional; conditions: HCC 2998, 48 h, read-out: Activity
[25] = Growth inhibition of human SF295 cells assessed as cell growth at 10 uM incubated for 48 hrs by sulforhodamine B assay relative to control; format: functional; conditions: SF-295, 48 h, read-out: Activity
[26] = biological target: Mitogen-activated protein kinase kinase kinase kinase 4 (Homo sapiens, UniProt O95819); assay: Inhibition of recombinant human HGK using Ulight-FLGFTYVAP as substrate after 90 mins by LANCE assay
[27] = Growth inhibition of human HOP92 cells assessed as cell growth at 10 uM incubated for 48 hrs by sulforhodamine B assay relative to control; format: functional; conditions: HOP-92, 48 h, read-out: Activity

Sequence of Mitogen-activated protein kinase kinase kinase kinase 4 (O95819 whole entry): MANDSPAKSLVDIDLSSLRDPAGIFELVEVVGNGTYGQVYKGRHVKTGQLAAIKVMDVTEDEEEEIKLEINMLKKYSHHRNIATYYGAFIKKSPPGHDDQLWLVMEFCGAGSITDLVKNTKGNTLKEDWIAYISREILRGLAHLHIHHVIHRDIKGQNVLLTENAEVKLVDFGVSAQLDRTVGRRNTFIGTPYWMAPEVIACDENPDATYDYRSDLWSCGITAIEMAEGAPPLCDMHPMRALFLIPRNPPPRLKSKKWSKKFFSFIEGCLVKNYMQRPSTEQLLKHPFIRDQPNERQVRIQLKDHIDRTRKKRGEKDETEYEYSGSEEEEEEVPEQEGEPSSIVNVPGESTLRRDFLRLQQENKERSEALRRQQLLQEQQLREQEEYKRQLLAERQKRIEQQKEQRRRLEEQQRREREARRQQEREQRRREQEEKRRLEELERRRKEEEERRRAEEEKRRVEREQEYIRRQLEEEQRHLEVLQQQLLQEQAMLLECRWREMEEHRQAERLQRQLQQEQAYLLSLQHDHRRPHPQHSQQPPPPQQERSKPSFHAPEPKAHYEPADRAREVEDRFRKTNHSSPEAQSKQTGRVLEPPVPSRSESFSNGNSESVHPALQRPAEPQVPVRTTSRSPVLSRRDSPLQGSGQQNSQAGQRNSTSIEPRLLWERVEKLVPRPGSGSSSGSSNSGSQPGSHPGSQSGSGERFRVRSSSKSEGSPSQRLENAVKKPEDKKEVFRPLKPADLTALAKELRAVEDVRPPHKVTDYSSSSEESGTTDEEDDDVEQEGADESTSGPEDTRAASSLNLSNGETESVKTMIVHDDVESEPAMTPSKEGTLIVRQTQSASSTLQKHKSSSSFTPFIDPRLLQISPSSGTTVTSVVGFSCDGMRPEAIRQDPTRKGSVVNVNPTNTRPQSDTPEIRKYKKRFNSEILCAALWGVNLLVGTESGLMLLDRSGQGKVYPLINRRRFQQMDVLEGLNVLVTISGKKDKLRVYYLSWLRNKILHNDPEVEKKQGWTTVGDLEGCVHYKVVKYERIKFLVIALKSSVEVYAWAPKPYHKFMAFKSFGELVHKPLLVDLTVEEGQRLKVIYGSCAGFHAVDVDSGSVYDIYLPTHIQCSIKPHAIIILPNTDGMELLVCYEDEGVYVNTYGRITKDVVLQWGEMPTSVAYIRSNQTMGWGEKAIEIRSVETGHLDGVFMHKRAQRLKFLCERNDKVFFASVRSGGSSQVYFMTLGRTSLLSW

Row | SMILES | growth at 10 µM [1] | growth at 10 µM [2] | growth at 10 µM [3] | growth at 10 µM [4] | growth at 10 µM [5] | growth at 10 µM [6] | growth at 10 µM [7] | growth at 10 µM [8] | growth at 10 µM [9] | growth at 10 µM [10] | growth at 10 µM [11] | growth at 10 µM [12] | growth at 10 µM [13] | growth at 10 µM [14] | growth at 10 µM [15] | growth at 10 µM [16] | growth at 10 µM [17] | GI50 [18] | growth at 10 µM [19] | growth at 10 µM [20] | other results
1 | C[C@@H]1NC(c2ccc(Cl)cc2)=Nc2nc3ccccn3c2C1=O | 76.2% | 109% | 97.9% | 64.2% | 92.5% | 87% | 93.2% | 91% | 85.4% | 81.4% | 84.6% | 114% | 84.8% | 83.6% | 69.2% | 97.9% | 81.4% | 5000 nM | 87.7% | 88.5% | growth at 10 µM [21]: 88.3%; growth at 10 µM [22]: 90%; growth at 10 µM [23]: 80.7%; growth at 10 µM [24]: 91.6%; growth at 10 µM [25]: 92.4%
2 | CC(C)(C)OC[C@@H]1NC(c2ccc(Br)cc2)=Nc2nc3ccccn3c2C1=O | 51.5% | 105% | 61.6% | 49% | 63.5% | 84.8% | 76.5% | 46.4% | 21.8% | 71.5% | 64.2% | 95.1% | 49.2% | 40.3% | 27.8% | 45.6% | 61.9% | 950 nM | 38.4% | 53.7% | pIC50 [26]: 5.25; growth at 10 µM [21]: 75.3%; growth at 10 µM [22]: 53.4%; growth at 10 µM [23]: 62.3%; growth at 10 µM [24]: 90.9%; growth at 10 µM [25]: 30.9%
3 | C[C@@H]1NC(c2ccc3ccccc3c2)=Nc2nc3ccccn3c2C1=O | 42.3% | 90.6% | 49.9% | 30.3% | 32.5% | 73.2% | 53.3% | 19.8% | 5.93% | 46.1% | 38.5% | 64.4% | 36.3% | 26.3% | 25.2% | 50.5% | 41.7% | 1400 nM | 35.3% | 34.5% | growth at 10 µM [21]: 55.4%; growth at 10 µM [22]: 52%; growth at 10 µM [23]: 40.9%; growth at 10 µM [24]: 77%; growth at 10 µM [25]: 14.9%
4 | C[C@@H]1NC(c2ccc(Cl)cc2Cl)=Nc2nc3ccccn3c2C1=O | 43.7% | 91.2% | 80.2% | 23.8% | 41.4% | 63.6% | 60.8% | 31.1% | 7.68% | 61.4% | 47.2% | 74.5% | 38.2% | 25.2% | 16.8% | 53.9% | 64.3% | 1150 nM | 39.6% | 50.4% | pIC50 [26]: < 4.00; growth at 10 µM [27]: 55.9%; growth at 10 µM [21]: 60.2%; growth at 10 µM [22]: 39.1%; growth at 10 µM [23]: 52.4%; growth at 10 µM [24]: 75.4%; growth at 10 µM [25]: 14.5%
